Assay results taken from US11654136B2, “Phosphoinositide 3-kinase inhibitor with a zinc binding moiety” (Curis, Inc., priority 2011, dated 2023).
Entries after “also recorded” stand apart in the source; their conditions may differ.

What was measured:
[1] = Pharmacokinetics in SCID mice bearing Daudi tumors; format: in vivo; details: for Area under the Curve / Half-life / Cmax / Tmax: oral gavage; for Area under the Curve / Cmax / Tmax: dose not stated; for Half-life: dose of the table not stated (25, 50 or 100 mg/kg); for Cmax / Tmax: female, mouse
Protocol: Daudi (non-Hodgkin's lymphoma cell line) cells were implanted into female Scid (severe […] immune-deficient) mice.
At various time points following compound administration, three mice per time point were euthanized with CO2, and blood and tumor tissues were collected. Blood was collected into tubes containing sodium heparin. The plasma was separated via centrifugation. Plasma and tissues were stored at −80° C. for later analysis. A PE Sciex API-3000 LC-MS/MS system (Applied Biosystems, Inc., Foster City, Calif.) was used to analyze compound concentrations in plasma.

[2] = Pharmacokinetic study in dogs; format: in vivo; details: beagle dogs
Source text: FIG. 4 is a graph of plasma concentration versus time for both oral and iv dosing.

[3] = test system: Daudi (non-Hodgkin's lymphoma cell line) xenograft tumors; experiment: Daudi xenograft tumor model; format: in vivo
Protocol: (§1) SU-DHL4 (diffuse large B-cell lymphoma cell line), H2122 (human NSCLC cell line), Daudi (non-Hodgkin's lymphoma cell line), and OPM2 (multiple myeloma tumor cell line) cells were implanted into either nude or Scid (severe […] immune-deficient) mice. […]. […] The control groups were treated with vehicle using the same dosing schedule as the corresponding active group.
(§2) In another study, the Daudi tumor group was dosed at 50 mg/Kg twice a day for five days per week. […] The SU-DHL4 tumor group was dosed at 100 mg/Kg orally or 50 mg/Kg intravenously.
(§3) Tumors were measured during the study period with an electronic caliper, and body weights were measured twice a week. The following formula was used to calculate the tumor volume: […] Percentage of tumor volume change was used to describe compound activity over the treatment period.

[4] = Daudi xenograft tumor model; format: in vivo; details: Scid, mouse, in vivo; oral; Daudi model; read-out: maximum tolerated dose (MTD)
Protocol: as §1, §2, §3

[5] = test system: Raf, MEK, and ERK; experiment: Western blot of RAF-MEK-ERK pathway in H460, A375, BT-474 and H1975 cells; format: cell-based; details: 100 nM, 16 hours
Protocol: Cell extracts were prepared in the presence of SDS and 2-mercaptoethanol and resolved in polyacrylamide gels. Proteins were transferred to nitrocellulose filter and blotting was done using standard procedures with blocking solutions (Li-Cor Bioscience) containing the indicated primary antibody. Primary antibodies against p-EGFR, EGFR, p-HER2, HER2, p-HER3, HER3, p-MET, MET, p-bRaf, p-cRaf, pMEK, MEK, p-ERK, ERK and tubulin were purchased from Cell Signaling Technology. Secondary antibody conjugated with IRdye 680, 800CW were used and the signal was detected with Li-Cor Odyssey Imager.
One major limitation of PI3K inhibitors in the treatment of cancers is the activation of the RAF-MEK-ERK pathway. HDAC inhibitors are able to inhibit kinase levels in this signaling pathway in cancer cells via epigenetic modification.

[6] = test system: Salmonella typhimurium TA98; experiment: Mini-Salmonella/mammalian-microsome reverse mutation assay TA98
Protocol: The tester strains used in the mutagenicity assay were Salmonella typhimurium tester strains TA98 (for detecting frame-shift reverse mutation) and TA100 (for detecting point reverse mutation). The assay was conducted in both the presence and absence of S9 mixture along with concurrent vehicle (DMSO, 20 μl/well) and positive controls in duplicate using 6-well plates. […] A reproducible two-fold increase (>2× of vehicle control) of revertant colonies over the daily average control value is considered a positive response of gene mutation for each strain.
2-nitrofluorene and sodium azide served as the positive controls in the absence of S9 for TA98 and TA100 respectively. 2-Aminoanthracene served as the positive controls in the presence of S9 for TA98 and TA100.

[7] = test system: glioblastoma xenografts; details: oral dosage; Folkes et al. 2008; cited from earlier work
[8] = Plasma, Daudi tumor-bearing Scid mice

Compound: COc1ccc(-c2nc(N3CCOCC3)c3sc(CN(C)c4ncc(C(=O)NO)cn4)cc3n2)cn1 [Compound 1, N-hydroxy-2-(((2-(6-methoxypyridin-3-yl)-4-morpholinothieno[3,2-d]pyrimidin-6-yl)methyl)(methyl)amino)pyrimidine-5-carboxamide]
- Area under the Curve [1, 8]: 1899.26 ng/mL * hr
- Half-life [1, 8]: 7.73 h
- Area under the Curve ([1]; Tumor): 3973.56 ng/mL * hr
- Half-life ([1]; Tumor): 12.62 h
- Cmax ([1]; Tumor): 1040 ng/mL
- Tmax ([1]; Tumor): 0.1 h
- Cmax [1, 8]: 2290 ng/mL
- Tmax [1, 8]: 0.24 h
- Distribution between plasma and tumor tissue ([1]; oral 25, 50 and 100 mg/kg): preferentially accumulates in tumor tissue in a dose dependent manner
- Plasma exposure versus dose ([1]; oral 25, 50 and 100 mg/kg, Daudi tumor-bearing Scid mice): dose-dependent exposure
- Area under the Curve ([2]; IV 5 mg/kg, plasma): 2977.47 ng/mL * hr
- Half-life ([2]; IV 5 mg/kg, plasma): 1.85 h
- Area under the Curve ([2]; PO Capsule 5 mg/kg, plasma): 450.4 ng/mL * hr
- Half-life ([2]; PO Capsule 5 mg/kg, plasma): 4.88 h
- bioavailability ([2]; dog, plasma, PO Capsule 5 mg/kg): 15.1%
- Cmax ([2]; dog, IV 5 mg/kg, plasma): 6160 ng/mL
- Cmax ([2]; dog, PO Capsule 5 mg/kg, plasma): 312 ng/mL
- Plasma levels after oral dosing ([2]; oral 5 mg/kg in enteric capsules): Significant plasma levels
- Tumor growth ([3]; oral 50 mg/Kg twice a day, five days per week): efficacious
- Antitumor activity compared with GDC-0941, vorinostat and their combination ([3]; oral 100 mg/Kg, each treatment at its MTD): more efficacious than vorinostat, GDC-0941, or a combination of both
- Tumor growth versus dose ([3]; oral 25, 50 or 100 mg/Kg five day per week): inhibited Daudi tumor growth in a dose-dependent manner
- MTD [4]: 100 mg/kg
- Activation of Raf, MEK, and ERK [5]: suppressed activation of Raf, MEK, and ERK
- Background Lawn TA98 ([6]; +S9, 62.5 μg/well): 4/4
- Revertants per well TA98, Mean ([6]; +S9, 62.5 μg/well): 5
- Revertants per well TA98, well 1 ([6]; +S9, 62.5 μg/well): 4
- Revertants per well TA98, well 2 ([6]; +S9, 62.5 μg/well): 6
- Background Lawn TA98 ([6]; +S9, 125 μg/well): 4/4
- Revertants per well TA98, Mean ([6]; +S9, 125 μg/well): 5
- Revertants per well TA98, well 1 ([6]; +S9, 125 μg/well): 6
- Revertants per well TA98, well 2 ([6]; +S9, 125 μg/well): 3
- Background Lawn TA98 ([6]; +S9, 250 μg/well): 4/4
- Revertants per well TA98, Mean ([6]; +S9, 250 μg/well): 7
- Revertants per well TA98, well 1 ([6]; +S9, 250 μg/well): 8
- Revertants per well TA98, well 2 ([6]; +S9, 250 μg/well): 6
- Background Lawn TA98 ([6]; +S9, 500 μg/well): 3,sp/3,sp
- Revertants per well TA98, Mean ([6]; +S9, 500 μg/well): 6
- Revertants per well TA98, well 1 ([6]; +S9, 500 μg/well): 6
- Revertants per well TA98, well 2 ([6]; +S9, 500 μg/well): 6
- Background Lawn TA98 ([6]; +S9, 1000 μg/well): 3,mp/3,mp
- Revertants per well TA98, Mean ([6]; +S9, 1000 μg/well): 7
- Revertants per well TA98, well 1 ([6]; +S9, 1000 μg/well): 6
- Revertants per well TA98, well 2 ([6]; +S9, 1000 μg/well): 7
- Mutagenic response TA98 ([6]; presence and absence of S9, up to 1000 μg/well): no evidence of a significant increase in the mean number of revertant colonies; also recorded: did not induce a positive mutagenic response
- Background Lawn TA98 ([6]; −S9, 62.5 μg/well): 4/4
- Revertants per well TA98, Mean ([6]; −S9, 62.5 μg/well): 4
- Revertants per well TA98, well 1 ([6]; −S9, 62.5 μg/well): 4
- Revertants per well TA98, well 2 ([6]; −S9, 62.5 μg/well): 4
- Background Lawn TA98 ([6]; −S9, 125 μg/well): 4/4
- Revertants per well TA98, Mean ([6]; −S9, 125 μg/well): 5
- Revertants per well TA98, well 1 ([6]; −S9, 125 μg/well): 4
- Revertants per well TA98, well 2 ([6]; −S9, 125 μg/well): 6
- Background Lawn TA98 ([6]; −S9, 250 μg/well): 4,sp/4,sp
- Revertants per well TA98, Mean ([6]; −S9, 250 μg/well): 6
- Revertants per well TA98, well 1 ([6]; −S9, 250 μg/well): 6
- Revertants per well TA98, well 2 ([6]; −S9, 250 μg/well): 5
- Background Lawn TA98 ([6]; −S9, 500 μg/well): 3,sp/3,sp
- Revertants per well TA98, Mean ([6]; −S9, 500 μg/well): 4
- Revertants per well TA98, well 1 ([6]; −S9, 500 μg/well): 5
- Revertants per well TA98, well 2 ([6]; −S9, 500 μg/well): 3
- Background Lawn TA98 ([6]; −S9, 1000 μg/well): 3,mp/3,mp
- Revertants per well TA98, Mean ([6]; −S9, 1000 μg/well): 5
- Revertants per well TA98, well 1 ([6]; −S9, 1000 μg/well): 4
- Revertants per well TA98, well 2 ([6]; −S9, 1000 μg/well): 5

Compound: CS(=O)(=O)N1CCN(Cc2cc3nc(-c4cccc5[nH]ncc45)nc(N4CCOCC4)c3s2)CC1 [GDC-0941, reference compound]
- Tumor suppression [7]: tumor suppression
